# From patent US6410588B1, “Use of cannabinoids as anti-inflammatory agents” (priority 1998, dated 2002)
# “Also recorded” adds a separate entry of the source. Like-named read-outs stand apart in the source and are kept apart here.
# What was measured:
# [1] = system: collagen induced arthritis (CIA); experiment: acute CIA model, oral feeding of CBD; assay type: in vivo, mouse; conditions: 10 days
# Description: The drug was administered by oral gavage. Control mice were fed vehicle (olive oil) along, as described in Materials and Methods. Results are expressed as a mean+/−SEM.
# The doses used were 10 mg/kag, 25 mg/kg and 50 mg/kg (n=6 per group), corresponding to 2, 5, and 10 mg/kg i.p. respectively. Control mice were fed olive oil (n=6).
# [2] = system: collagen induced arthritis (CIA)
# Description: Bovine type II collagen (CII) was purified from hyaline cartilage, as described [Williams, 1992# 18]. Male DBA/1 mice (8-12 weeks old) were immunized with 100 μg of CII emulsified in complete Freund's adjuvant CFA (Difco, Detroit, Mich.) by intradermal injection at the base of the tail. From day 15 after immunization onwards, mice were examined daily for onset of CIA using two clinical parameters: paw swelling and clinical score [Williams, PNAS, Vol. 89, pages 97848]. Paw swelling was assessed by measuring the thickness of the affected hind paws with 0-10 mm callipers (Kroeplin, Schluchtern, Germany). For the clinical score, 0=normal; 1=slight swelling and erythema; 2=pronounced edema; 3=joint rigidity. Each limb was graded, resulting in a maximal clinical score of 12 per animal. The arthritis was monitored over 10 days, after which the mice were sacrificed.
# Mice injected with vehicle alone (ethanolcremophor in saline) served as controls (n=23).
# IL-1β release = IL-1β release by LPS-stimulated human PBMC; assay type: cell-based; conditions: for IL-1β: LPS 10 ng/ml 24 hours, mean ± SEM
# Description: (§1) CBD was dissolved in ethanol/DMSO.
# (§2) Peripheral blood mononuclear cells (PBMC) were isolated from the whole blood of healthy donors by Ficoll Hypaque gradient. […] After this 6 hour pretreatment period, the cells were stimulated with either LPS from Salmonella typhimirium, 10 ng/ml, for 24 hours (for TNF and IL-1β) or with PHA, 5 μg/ml, for 72 hours (for IFNγ) Viability of the PBMC was assessed with the MTT test.
# (§3) Human PBMC were cultured and stimulated with or without CBD, as described in Materials and Methods. The stimulus for TNF and IL-1 production was LPS, the stimulus for IFNγ production was PHA. The results are the mean of triplicate wells±SEM. ND=not done.
# IL-2 = conditions: cited from earlier work
# EAE = experiment: experimental autoimmune encephalomyelitis (EAE); assay type: in vivo, mouse (SJL/J)
# schizophrenia = conditions: in vivo; cited from earlier work
# [3] = system: ROI production by granulocytes; experiment: ROI production by granulocytes, luminol-enhanced chemiluminescence response to zymosan; assay type: cell-based, mouse (C57BL/6)
# Description: Thioglycollate-elicited granulocytes were harvested from C57BL/6 mice by sterile lavage with PBS 18 hrs. after intraperitoneal injection with 1.5 ml thioglycollate medium (1.5 ml in 3% solution). The cells were washed and resuspended at 5×10^5 cells/ml in Hanks' buffered salt solution without phenol red, and distributed at 0.5 ml/tube into luminometer plastic tubes. […] The tube was inserted into luminometer (Biolumate LB 95 oot Berhold Wildbad Germany) which had been prewarmed to 37° C. The granulocyte luminol-enhanced chemiluminescence response to zymosan was considered as the positive control.
# [4] = system: mRNA of IL-1, IL-6 and TNFα; conditions: BALB/C mice injected with cannabidiol; cited from earlier work
# IFNγ production = experiment: IFNγ release by PHA-stimulated human PBMC; assay type: cell-based; conditions: PHA 5 μg/ml 72 hours, mean ± SEM
# Description: as §1, §2, §3
# [5] = system: animal models predictive of antipsychotic activity; conditions: in vivo; cited from earlier work
# IFNγ = conditions: cited from earlier work
# IL-8 = experiment: human rheumatoid synovial cell IL-8 production (ELISA); assay type: cell-based; conditions: for IL-8, mean: 48 hours culture
# Description: Synovial membrane tissue was obtained from a patient fulfilling the revised American College of Rheumatology criteria for rheumatoid arthritis who underwent joint replacement surgery. Synovial cell cultures were prepared as described. Briefly, synovial membrane tissue was digested with collagenase type A (1 mg/ml) and DNAase I (0.15 mg/ml) in RPMI 1640 containing 5% FCS for 2 hours at 37° C.
# Similarly, rheumatoid synovial cells spontaneously produce cytokines when cultured in vitro. […] With restricted number of human synovial cells in this sample, the optimal dose for inhibiting TNFα may have been missed.
# [6] = system: collagen induced arthritis (CIA); experiment: histological analysis of hind paw joints in CIA; assay type: in vivo, mouse; conditions: for joints completely protected: hind paws, day 10, control: no normal joints
# Description: The hind paws were assessed as normal, mildly affected or severely destroyed.
# Hind paws and knee joints were removed post mortem on the tenth day of arthritis, fixed in formalin and decalcified in 5% EDTA. Paws and knees were then embedded in paraffin, sectioned and stained with haematoxylin and eosin. Arthritic changes in the ankle, the metatarsophalangeal joints, the proximal interphalangeal and the distal interphalangeal joints were scored blindly as mild (mild synovial hyperplasia), moderate (pannus formulation and erosions limited to the cartilage-pannus junction), or severe (=extended bone and cartilage erosions with loss of joint architecture).
# nitric oxide (NO) = conditions: macrophages activated by LPS and IFNγ; cited from earlier work
compound,measurement,setting,value
"C=C(C)[C@@H]1CCC(C)=C[C@H]1c1c(O)cc(CCCCC)cc1O [CBD, Cannabidiol]",suppression of arthritis (in words),[1]; 25 mg/kg daily oral gavage,significantly better than the control group; also recorded: optimal dose
same,suppression of arthritis (in words),[1]; daily oral gavage after onset of arthritis,adequate suppression of the arthritis
same,"therapeutic effect on CIA (clinical score, paw thickness)",[2]; 2.5 mg/kg i.p. daily until day 10,no effect at all
same,"therapeutic effect on CIA (clinical score, paw thickness)",[2]; 10 mg/kg i.p. daily until day 10,slight therapeutic effect
same,IL-1β,IL-1β release; CBD 0.1 μg/ml,621 ± 82 pg/mL
same,IL-1β,IL-1β release; CBD 1 μg/ml,671 ± 74 pg/mL
same,IL-1β,IL-1β release; CBD 2.5 μg/ml,630 ± 81 pg/mL
same,IL-1β,IL-1β release; CBD 5 μg/ml,908 ± 99 pg/mL
same,IL-1β,IL-1β release; CBD 10 μg/ml,1575 ± 335 pg/mL
same,IL-1β,IL-1β release; CBD 20 μg/ml,2292 ± 251 pg/mL
same,IL-1β,IL-1β release; CBD 30 μg/ml,4158 ± 313 pg/mL
same,effect on LPS-induced IL-1β release (in words),IL-1β release; higher concentrations of CBD,increased their release
same,effect on LPS-induced IL-1β release (in words),IL-1β release; lower concentrations of CBD (0.1 to 5 μg/ml),significantly suppressed
same,IL-2 secretion,IL-2,did not affect IL-2 secretion
same,suppression of EAE (in words),EAE; 10 mg/kg,markedly suppresses EAE
same,Duration of EAE,EAE; CBD 10 mg/kg i.p. once a day for 14 days,2.16 days
same,Incidence of EAE,"EAE; CBD 10 mg/kg i.p. once a day for 14 days, 6 SJL/J mice",2/6
same,Mean maximum score (EAE),"EAE; CBD 10 mg/kg i.p. once a day for 14 days, six point scale 0-6",1
same,antipsychotic effects in schizophrenia,schizophrenia,antipsychotic effects
same,Chemiluminescence computer peak,[3]; Zymozan + CBD 5 μg/ml (1 h),157
same,Chemiluminescence computer peak,[3]; Zymozan + CBD 6 μg/ml (0 h),1024
same,Chemiluminescence computer peak,[3]; Zymozan + CBD 6 μg/ml (2 h),235
same,"level of mRNA of IL-1, IL-6 and TNFα",[4],did not show significant change
same,IFNγ,IFNγ production; CBD 0.1 μg/ml,2062 ± 316 pg/mL
same,IFNγ,IFNγ production; CBD 1 μg/ml,1082 ± 75 pg/mL
same,IFNγ,IFNγ production; CBD 2.5 μg/ml,1171 ± 138 pg/mL
same,IFNγ,IFNγ production; CBD 5 μg/ml,791 ± 43 pg/mL
same,IFNγ,IFNγ production; CBD 10 μg/ml,150 ± 43 pg/mL
same,efficacy in animal models predictive of antipsychotic activity,[5],effective
same,IFNγ synthesis,IFNγ; high concentrations (5-24 μg/ml),completely blocked IFNγ synthesis
same,IFNγ production,IFNγ; low concentrations,increase IFNγ production
same,IL-8 release (in words),IL-8,dose-dependent inhibition
same,"IL-8, mean",IL-8; CBD 0.1 μg/ml,174 ng/mL
same,"IL-8, mean",IL-8; CBD 1 μg/ml,183 ng/mL
same,"IL-8, mean",IL-8; CBD 20 μg/ml,87 ng/mL
same,joints moderately or severely affected,"[6]; 5 mg/kg CBD, control mice 69%",42%
same,joints completely protected,[6]; 5 mg/kg CBD,33%
same,joints completely protected,[6]; 10 mg/kg CBD,11%
same,nitric oxide (NO) production,nitric oxide (NO),inhibited
